Assay results from US20110319329A1, “USE OF SO[…] IN CLUSTER HEADACHE” (priority 2007, published 2011).
Where two headings read alike, the source gives them in different places. Numbered stars: 1 amine (or outer) side, 2 acyl side, 3 side chain; on linkers, the order of the positions; unused ones are H or OH. Square brackets hold non-standard residues; d marks the D form. Side chains are listed from the residue outwards. Peptide text beside a SMILES is read from it. * marks the point of attachment. Ethylenediamine = C(CN[*:2])N[*:1]; Hyp = O=C(O)[C@@H]1C[C@@H](O)CN1; Phg = N[C@H](C(=O)O)c1ccccc1; CO = O=C([*:1])[*:2]; Bn = c1ccc(C*)cc1

Experiments:
[1] = cited from earlier work
[2] = partition coefficient (lipophilicity)

Compound | half-life ([1]; octapeptide analog, can be given subcutaneously) | logP [2] | half-life ([1]; native somatostatin, necessitates intravenous infusion)
C[C@@H](O)[C@@H]1NC(=O)[C@H](CCCCN)NC(=O)[C@@H](Cc2c[nH]c3ccccc23)NC(=O)[C@H](Cc2ccccc2)NC(=O)[C@@H](NC(=O)[C@H](N)Cc2ccccc2)CSSC[C@@H](C(=O)N[C@H](CO)[C@@H](C)O)NC1=O [octreotide] | approximately 1.5 hours | 5.5 | –
NCCCC[C@@H]1NC(=O)[C@@H](Cc2c[nH]c3ccccc23)NC(=O)[C@H](c2ccccc2)NC(=O)[C@@H]2C[C@@H](OC(=O)NCCN)CN2C(=O)[C@H](Cc2ccccc2)NC(=O)[C@H](Cc2ccc(OCc3ccccc3)cc2)NC1=O [pasireotide, cyclo[{4-(NH2—C2H4—NH—CO—O-)Pro}-Phg-DTrp-Lys-Tyr(4-Bzl)-Phe]] (cyclo([Hyp]([CO-Ethylenediamine])[Phg][dW]KY(Bn)F); ring closure inferred) | – | 2.7 | –
somatostatin | – | – | several minutes
